Measured values reported in PMC9068772, “Discovery of first-in-class nanomolar inhibitors of heptosyltransferase I reveals a new aminoglycoside target and potential alternative mechanism of action” (Scientific Reports, 2022).
Converted amounts (≈) assume the structure as drawn. “And” between values parts separate entries of the source, which are not always exact repeats. Equal values may be shown once.

Experiments:
[1] = system: LPS production in E. coli K12; test: LPS visualization gels of lipid extracts from growth challenge samples; type: cell-based; conditions: for Concentration range over which LPS production decreases: E. coli K12, lipids from 4 × 10^8 cells; for IC50: Escherichia coli, E. coli K12, silver-stained gels, inflection point of sigmoid fit, read-out: IC50 of LPS production (LPS band pixel density)
Method: The assays were prepared by plating E. coli K12 onto an LB-agar plate and grown overnight (12–18 h)[60]. A colony forming unit was chosen to inoculate 10 mL of fresh LB media in a tightly capped 15 mL falcon tube and placed in an incubator (no agitation) at 37 °C for exactly 24 h to increase the number of viable cells for inoculation of the plate and thusly reproducibility in highly variable growth patterns. A 96-well plate was then filled with a variety of inhibitor concentrations taken from stock solutions made up in ultra-pure water allowing for one row to remain free of the inhibitor. Each inhibitor concentration was given 3-wells to ensure a triplicate of data is collected at once. With the same fresh media used to make the overnight culture, the overnight growths were added to the plate in a 1:1000 dilution (total volume 200 uL) and the plate sealed with clear adhesive plastic sealant. One row has been designated for uncultured media to be used for pre-blanking measurements and to ensure that the media isn’t growing spontaneously.
As previously established, lipid extraction occurs through lysis of surface polysaccharides with a lysis buffer containing 1% SDS, 20% glycerol, 100 mM Tris–HCl and 0.04% bromophenol blue at a pH 6.8[61]. The cellular concentrations from each well were determined using the last collected OD600 corrected using Eq. (8), centrifuged and resuspended in the correct volume of lysis buffer to obtain 4 × 10^8 cells/100 µL solution. Addition of Proteinase K at 1 mg/mL concentration was incubated for 1 h at 37 °C. These samples were then loaded onto a 15% separating, 6% stacking SDS–polyacrylamide gel (recipes received from https://www.bio-rad.com/) in a 19:1 acrylamide to bis-acrylamide ratio and run with a voltage gradient from 50–150 V. The gels were then stained using the protocol described previously with no modifications[62] and imaged using a scanner.
Relative LPS band density was determined using analysis methods provided by ImageJ software. The band pixel density were analyzed relative to a purified sample of heptosylated O-deacylated Lipid A at 100 nM. The plot was generated of relative band density vs. concentration of inhibitor[63].

[2] = biological target: T1, HepI (Escherichia coli, UniProt P24173); test: Circular dichroism thermal melt of HepI; type: binding, E. coli K12; conditions: CD melt; for Increase in unfolding compared to apo HepI: HepI plus inhibitor, no ODLA; for Difference in melting temperature of HepI•ODLA complex caused by inhibitor: destabilization of HepI•ODLA
T1 construct: made in house; host or cells: E. coli One Shot BL-21-AI
T1 sequence (P24173 whole entry): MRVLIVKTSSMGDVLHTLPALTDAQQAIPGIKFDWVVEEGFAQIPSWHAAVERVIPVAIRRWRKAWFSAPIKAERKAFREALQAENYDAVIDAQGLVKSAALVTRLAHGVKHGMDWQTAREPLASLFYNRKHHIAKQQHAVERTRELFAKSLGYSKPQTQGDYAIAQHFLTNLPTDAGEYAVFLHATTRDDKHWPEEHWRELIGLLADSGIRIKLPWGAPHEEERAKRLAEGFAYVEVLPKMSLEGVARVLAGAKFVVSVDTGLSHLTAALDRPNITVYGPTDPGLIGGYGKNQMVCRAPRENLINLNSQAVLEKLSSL
Method: Circular dichroism melt experiments were performed in a Jasco J-810 spectropolarimeter in Starna 21-Q-2 cells (minimum volume 400 µL) sealed with Teflon tape to prevent evaporation. Parameters include 3 accumulations of data collected between 195–275 nm as a function of temperature (10–95 °C with 5° increments) at a ramp rate of 2°/min and a scanning rate of 50 nm/min. Samples were prepared by diluting a mixture of 5 μM HepI and some combination of 250 μM substrate/product and/or 100 μM inhibitor in a buffer of 10 mM Tris–HCl and 100 mM KCl (pH = 7.5). CD data was analyzed via in house script written in MATLAB R2018A that average a set of triplicate data, normalizes to a percent unfolded (assuming the protein is fully folded at 5 °C) at 222 nm as a function of temperature and fits to a sigmoid curve to determine the melt temperature (TM).

[3] = biological target: T1, HepI; test: Intrinsic tryptophan fluorescence of HepI; type: binding, E. coli K12; conditions: for Blue shift of HepI tryptophan emission λmax: HepI plus ligand alone, vs apo; for Blue shift of HepI tryptophan emission λmax with ODLA and inhibitor: inhibitor added to HepI•ODLA complex
Method: Fluorescence spectra were measured in triplicate at room temperature using 200 μL samples containing 1 μm HepI, in a 10 mm HEPES, 50 mm KCl, and 10 mm MgCl2, pH = 7.5 buffer. Samples were contained in Starna 45-Q-3 cells (minimum volume 200 µL). Substrate and inhibitor concentrations were 100 μM. All measurements were taken using a Fluoromax-4 fluorometer with an excitation slit bandpass of 2 nm and an emission slit bandpass of 3 nm (λex = 290 nm, λem = 310–450 nm). The data was subtracted from blanks, normalized and fit to a lognormal distribution (Eq. 7)[36] to determine the emission maximum (λmax) with in house scripts written in MATLAB R2018A.7 Iλ=Imax·e^-ln2/ln^2ρ·ln^2(a-λ/a-λmax)

[4] = biological target: T2, HepI R63A (Escherichia coli, UniProt P24173, R63A); test: HepI inhibition, ADP/NADH coupled assay (R63A mutant); type: biochemical, E. coli K12
T2 construct: made in house; host or cells: E. coli One Shot BL-21-AI (stated for HepI in general)
T2 sequence (P24173 whole entry R63A): as the sequence (P24173 whole entry) above, with R63A counted along it
Method: As previously reported[11],[14],[15], an ADP/NADH coupled assay was used to monitor HepI activity by monitoring the absorbance change at 340 nm at 37 °C on a Cary Bio 100 UV–Vis Spectrometer. Under normal conditions, the assay buffer was composed of 50 mM HEPES, 50 mM KCl, 10 mM MgCl2, pH 7.5. The coupled enzyme reaction additionally contained 100 μM phosphoenolpyruvate, 100 μM NADH, 100 μM dithiothreitol (DTT) and 0.05 U/μL of both pyruvate kinase and lactate dehydrogenase. 100 μM ADPH was used when ODLA concentration was varied and 100 μM ODLA was used when ADPH was varied. Once a stable baseline was established (~ 5 min), the reaction was initiated by addition of HepI to a final concentration of 50 nM or 100 nM (for high and lower substrate concentrations respectively) and all reported reaction rates are after background subtraction. When running 12 samples at once, plastic cuvette stirs and a repeat pipettor was used to inject 200 μL enzyme. Inhibition of HepI was monitored using the same ADP/NADH coupled assay, all conditions of the assay were the same as previously described unless otherwise stated. Ki values for each of the compounds were determined by varying compound final concentration from 100 μm to 10 nm, and a final concentration of 10 μM ODLA. Competition assays against ADPH were done with excess ODLA (100 μM) and varying ADPH from 2–0.25 μM. Competition assays against ODLA were done with excess ADPH (100 μM) and varying ODLA from 2–0.25 μM. Reactions were started with addition of enzyme and inhibitor was varied from 30–0.01 μM. Kinetics were fit to Lineweaver-Burke (Eq. 1), competitive (Eq. 2), non-competitive (Eq. 3), mixed (Eq. 4), Dixon (Eq. 5), or Cornish-Bowden (Eq. 6) models. All fitting and plotting was done through MATLAB R2018A.1 1/V1/[S]=KM/Vmax[S]+1/Vmax 2 V[S]=Vmax[S]/KM1+[I]/Ki+[S] 3 V[S]=Vmax[S]/1+([I]/Ki)/KM+[S] 4 V[S]=Vmax[S]/KM(1+[I]/Ki)+[S](1+[I]/αKi) 5 1/V[I]=KM1+I/Ki+[S]1+I/αKi/Vmax[S] 6 [S]/V[I]=KM1+I/Ki+[S]1+I/αKi/Vmax

Row | Structure (SMILES) | Concentration at which no LPS is detectible ([1]; E. coli K12) [ng/mL] | Concentration range over which LPS production decreases [1] [ng/mL] | IC50 [1] [µg/mL] | Increase in unfolding compared to apo HepI [2] | Melting temperature (Tm) of HepI with ligand ([2]; HepI plus ligand alone) | Melt of HepI with ADPH and inhibitor ([2]; compared with HepI with ADPH alone) | Difference in melting temperature of HepI•ODLA complex caused by inhibitor [2] | Extent of unfolding of HepI•ODLA complex with inhibitor ([2]; inhibitor added to HepI•ODLA) | Melting temperature of HepI•ODLA complex with inhibitor ([2]; inhibitor added to HepI•ODLA) | Blue shift of HepI tryptophan emission λmax [3] | Blue shift of HepI tryptophan emission λmax with ODLA and inhibitor [3] | Ki [4] [µM] | ΔΔG (kcal/mol) Exp ([4]; Arg63Ala relative to WT) [kcal/mol] | ΔG (kcal/mol) Exp ([4]; Arg63Ala, from Ki) [kcal/mol] | kcat ([4]; HepI R63A in presence of inhibitor) [s⁻¹] | Ki relative to WT ([4]; HepI R63A vs WT)
1 | NC[C@H]1O[C@H](O[C@H]2[C@H](O)[C@@H](O[C@H]3O[C@H](CO)[C@@H](O)[C@H](N)[C@H]3O)[C@H](N)C[C@@H]2N)[C@H](N)C[C@@H]1O [Tobramycin] | ≥ 7.5 | 5 to 7 | 0.0064 ± 0.0001 (≈ 0.0137 µM) | 20% | ~ 37 °C | no changes from HepI with ADPH alone | > 30 °C | about 70% | ~ 58 °C | did not alter the λmax | 6 nm | – | – | – | – | –
2 | [H]/N=C(/N)N[C@H]1[C@H](O)[C@@H](O)[C@H](O[C@@H]2O[C@@H](C)[C@](O)(C=O)[C@H]2O[C@@H]2O[C@@H](CO)[C@H](O)[C@@H](O)[C@@H]2NC)[C@@H](N/C(N)=N\[H])[C@@H]1O [Streptomycin] | – | 25 to 27.5 | 0.0262 ± 0.001 (≈ 0.045 µM) | ~ 20% and 15–20% | – | – | not observed | – | no different from substrate or product alone | no changes to the emission spectra | unperturbed | 6.66 ± 0.699 | 1.4 ± 0.1 | -7.1 ± 0.1 | 0.198 ± 0.024 | increased the Ki values an order of magnitude
